pIC50: −log10 of the molar value.
Test system: 485368-065-R3-J5-PDC spheroids with HUVEC/MSC, viability
Assay: Anticancer human tumor 485368-065-R3-J5-PDC patient-derived pancreatic carcinoma cell line growth inhibition [RAS]
Details: for pIC50: curve of first compound; for viability, T/C: stronger effect = lower value
Text: RAS pathway inhibitors in Combinations in Complex Spheroids
A high-throughput screen of multi-cell type tumor spheroids was designed to identify active combinations of RAS pathway inhibitors and targeted small molecules. Complex spheroids include a stromal component modeled by human endothelial cells (HUVEC) and fibroblasts modeled by human mesenchymal stem cells (MSCs). The concentration ranges selected for each drug and investigational agent were based upon clinically achievable concentrations if the clinical Cmax of the agent was known.
Compounds. The drugs and investigational agents: abemaciclib (NSC768073), cobimetinib (NSC768068), divarasib (GDC6063, NSC841802), docetaxel (NSC628503), GDC-1971 (RLY-1971, NSC841576), gemcitabine (NSC613327), inavolisib (NSC800729), ipatasertib (NSC767898), KB-0742 (NSC834161), MRTX-1133 (NSC836407), osimertinib (NSC779217), RMC-4630 (NSC839698), RMC-6236 (NSC851965), RMC-6291 (NSC852671), Ro-3306 (NSC812927), sapanisertib (NSC764658), SN-38 (NSC673596), staurosporine (NSC755774), SY5609 (NSC837396), and tovorafenib (DAY101, NSC766906), were obtained from the National Cancer Institute (NCI) Developmental Therapeutics Program Chemical Repository. The FDA-approved anticancer drug set is available from the NCI Developmental Therapeutics Program. […] The stock solutions were prepared in dimethyl sulfoxide (DMSO, Sigma-Aldrich, St. Louis, MO, cat. D2650) at 800-fold the tested concentration and stored at -70 degrees C prior to their use. All drugs and investigational agents were tested over a range starting from a high concentration at or near the clinical Cmax and decreasing in half-log increments. If the clinical Cmax for an agent had not been determined, the highest concentration tested was 10 microM.
Cell Culture. All cells were maintained in an incubator at 37 degrees C and 5% CO2 with 95% humidity. The PDC lines were cultured according to standard operating procedures established by the NCI PDMR. All PDCs were thawed and cultured in Matrigel-coated flasks prepared with a working solution of 1X Ham's F-12 nutrient mix, without supplementation (Invitrogen, Waltham, MA, cat. 11765054), 100 U/mL penicillin-streptomycin (Invitrogen, cat. 15140122), and 2.5% Matrigel (Corning Inc., Corning, NY, cat. 354248) for the first three passages. The 362531-283-R-J2-PDC and 782815-120-R-J1-PDC lines were cultured in 6C/Colon 1B media, which includes advanced DMEM/F-12 (Thermo Fisher Scientific, cat. 12634028), 10 mM HEPES (Thermo Fisher Scientific, cat. 15630080), 1X GlutaMAX supplement (Thermo Fisher Scientific, cat. 35050061), 0.1 mg/mL primocin (InvivoGen, San Diego, CA, cat. ant-pm-2), 10% defined fetal bovine serum, heat inactivated (HyClone Laboratories Inc., Logan, UT, cat. SH30070.03HI), 50% L-WRN conditioned media (ATCC, cat. CRL-3276), 1.25 mM N-Acetyl-L-cysteine (Sigma-Aldrich, cat. A9165), 10 mM nicotinamide (Sigma-Aldrich, cat. N0636), 1X B-27 supplement (Thermo Fisher Scientific, cat. 17504044), 1X N-2 supplement (Thermo Fisher Scientific, cat. 17502048), 50 ng/mL human EGF (Thermo Fisher Scientific, cat. PHG0311), and 10 microM Y-27632 dihydrochloride (Tocris Bioscience, cat. 1254). The K12877-001-R-J1-PDC line was cultured in 6I media, which includes all 6C/Colon 1B media plus 10 ng/mL human FGF-10 (PeproTech, cat. 100-26), 1 ng/mL human FGF-2 (PeproTech, cat. 100-18B), 1 µM prostaglandin E2 (Tocris Bioscience, cat. 2296), […] hydrocortisone (Sigma-Aldrich, cat. H4001), and […] bovine insulin (Sigma-Aldrich, cat. I6634). The K86415-001-R-J1-PDC line was cultured in 6D media, which includes all 6C/Colon 1B media components minus the L-WRN conditioned media. The 485176-168-R4-J1-PDC was cultured in PANC media, which includes all 6C/Colon 1B media plus 100 ng/mL human FGF-10 (PeproTech, cat. 100-26), 500 nM SB-431542 (Selleckchem, cat. S1067), and 10 nM gastrin (Tocris Bioscience, cat. 3006). […]

[1] = second compound 0.0316 µM, first compound 0.0316 µM
[2] = second compound 0.0316 µM, first compound 0.1 µM
[3] = second compound 0.0316 µM, first compound 0.316 µM
[4] = second compound 0.0316 µM, first compound 1 µM
[5] = second compound 0.1 µM, first compound 0.0316 µM
[6] = second compound 0.1 µM, first compound 0.1 µM
[7] = second compound 0.1 µM, first compound 0.316 µM
[8] = second compound 0.1 µM, first compound 1 µM
[9] = second compound 0.316 µM, first compound 0.0316 µM
[10] = second compound 0.316 µM, first compound 0.1 µM
[11] = second compound 0.316 µM, first compound 0.316 µM
[12] = second compound 0.316 µM, first compound 1 µM
[13] = second compound 1 µM, first compound 0.0316 µM
[14] = second compound 1 µM, first compound 0.1 µM
[15] = second compound 1 µM, first compound 0.316 µM
[16] = second compound 1 µM, first compound 1 µM
[17] = second compound 3.16 µM, first compound 0.0316 µM
[18] = second compound 3.16 µM, first compound 0.1 µM
[19] = second compound 3.16 µM, first compound 0.316 µM
[20] = second compound 3.16 µM, first compound 1 µM
[21] = second compound 10 µM, first compound 0.0316 µM
[22] = second compound 10 µM, first compound 0.1 µM
[23] = second compound 10 µM, first compound 0.316 µM
[24] = second compound 10 µM, first compound 1 µM
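Note: spheroids exposed to agents for seven days before readout.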

With `CCC(CC)c1cc(NC2CCC(N)C2)n2nccc2n1` (centres undefined) + C#Cc1c(F)ccc2cc(O)cc(-c3ncc4c(N5CC6CCC(C5)N6)nc(OCC56CCCN5CC(F)C6)nc4c3F)c12 the pIC50 (second compound 0.0316 µM) was 5.69, the pIC50 (second compound 0.1 µM) was 5.71 and the pIC50 (second compound 0.316 µM) was 5.70. The pIC50 (second compound 1 µM) was 5.70, the pIC50 (second compound 3.16 µM) was 5.74 and the pIC50 (second compound 10 µM) was 5.90. The viability, T/C [1] was 108%, the viability, T/C [2] was 116% and the viability, T/C [3] was 110%. The viability, T/C [4] was 147%, the viability, T/C (second compound 0.0316 µM, first compound 3.16 µM) was 4.74% and the viability, T/C (second compound 0.0316 µM, first compound 10 µM) was 7.01%. The viability, T/C [5] was 107%, the viability, T/C [6] was 95.8% and the viability, T/C [7] was 109%. The viability, T/C [8] was 129%, the viability, T/C (second compound 0.1 µM, first compound 3.16 µM) was 4.21% and the viability, T/C (second compound 0.1 µM, first compound 10 µM) was 7.06%. It also gave a viability, T/C [9] of 99.4%, a viability, T/C [10] of 105% and a viability, T/C [11] of 114%. It also gave a viability, T/C [12] of 152%, a viability, T/C (second compound 0.316 µM, first compound 3.16 µM) of 5.79% and a viability, T/C (second compound 0.316 µM, first compound 10 µM) of 7.25%. For the same compound, the viability, T/C [13] was 91.1%, the viability, T/C [14] was 109% and the viability, T/C [15] was 121%. For the same compound, the viability, T/C [16] was 138%, the viability, T/C (second compound 1 µM, first compound 3.16 µM) was 4.74% and the viability, T/C (second compound 1 µM, first compound 10 µM) was 6.22%. The viability, T/C [17] was 86.7%, the viability, T/C [18] was 83.8% and the viability, T/C [19] was 96.9%. For the same compound, the viability, T/C [20] was 128%, the viability, T/C (second compound 3.16 µM, first compound 3.16 µM) was 4.66% and the viability, T/C (second compound 3.16 µM, first compound 10 µM) was 6.53%. The viability, T/C [21] was 47.2%, the viability, T/C [22] was 42.1% and the viability, T/C [23] was 61.7%. For the same compound, the viability, T/C [24] was 93.3%, the viability, T/C (second compound 10 µM, first compound 3.16 µM) was 3.14% and the viability, T/C (second compound 10 µM, first compound 10 µM) was 6.12%.

Compound `CCN1CCN(Cc2ccc(Nc3ncc(F)c(-c4cc(F)c5nc(C)n(C(C)C)c5c4)n3)nc2)CC1` + C#Cc1c(F)ccc2cc(O)cc(-c3ncc4c(N5CC6CCC(C5)N6)nc(OCC56CCCN5CC(F)C6)nc4c3F)c12 has a pIC50 (second compound 0.0316 µM) of 6.34, a pIC50 (second compound 0.1 µM) of 6.50 and a pIC50 (second compound 0.316 µM) of 6.36. The pIC50 (second compound 1 µM) was 6.75, the pIC50 (second compound 3.16 µM) was 7.33 and the pIC50 (second compound 10 µM) was > 8.50. For the same compound, the viability, T/C (second compound 0.0316 µM, first compound 0.00316 µM) was 101%, the viability, T/C (second compound 0.0316 µM, first compound 0.01 µM) was 87% and the viability, T/C [1] was 82.8%. The viability, T/C [2] was 72.5%, the viability, T/C [3] was 50.9% and the viability, T/C [4] was 41.4%. The viability, T/C (second compound 0.1 µM, first compound 0.00316 µM) was 98.2%, the viability, T/C (second compound 0.1 µM, first compound 0.01 µM) was 96.7% and the viability, T/C [5] was 76.1%. For the same compound, the viability, T/C [6] was 65.9%, the viability, T/C [7] was 50.1% and the viability, T/C [8] was 39.8%. For the same compound, the viability, T/C (second compound 0.316 µM, first compound 0.00316 µM) was 94.4%, the viability, T/C (second compound 0.316 µM, first compound 0.01 µM) was 85.9% and the viability, T/C [9] was 76.2%. It also gave a viability, T/C [10] of 72.1%, a viability, T/C [11] of 50.4% and a viability, T/C [12] of 40.6%. The viability, T/C (second compound 1 µM, first compound 0.00316 µM) was 78.5%, the viability, T/C (second compound 1 µM, first compound 0.01 µM) was 83.8% and the viability, T/C [13] was 75.1%. It also gave a viability, T/C [14] of 59.4%, a viability, T/C [15] of 40.1% and a viability, T/C [16] of 40%. The viability, T/C (second compound 3.16 µM, first compound 0.00316 µM) was 69.4%, the viability, T/C (second compound 3.16 µM, first compound 0.01 µM) was 63.9% and the viability, T/C [17] was 49.7%. It also gave a viability, T/C [18] of 47.5%, a viability, T/C [19] of 36.5% and a viability, T/C [20] of 33.8%. For the same compound, the viability, T/C (second compound 10 µM, first compound 0.00316 µM) was 48.8%, the viability, T/C (second compound 10 µM, first compound 0.01 µM) was 37.2% and the viability, T/C [21] was 31.4%. The viability, T/C [22] was 30.3%, the viability, T/C [23] was 29.9% and the viability, T/C [24] was 28.3%.

Source: PubChem BioAssay AID2060902 (Molecular Pharmacology Branch, DTP, NCI, 2025)
